Measured values from PMC5435703 (Scientific Reports, 2017).
Converted amounts (≈) assume the structure as drawn. Like-named read-outs stand apart in the source and are kept apart here.

Experiments:
MRSA-2 = assay: MIC broth microdilution assay; format: cell-based, Staphylococcus aureus; conditions: Staphylococcus aureus, MRSA; Table 1; read-out: MIC MRSA-2
S. epi 12228 = assay: MIC broth microdilution assay; format: cell-based, Staphylococcus epidermidis
MRSE 35984 [1] = assay: MIC broth microdilution assay; format: cell-based, Staphylococcus epidermidis; conditions: Staphylococcus epidermidis, MRSE
MRSA BAA-44 = assay: MIC broth microdilution assay; format: cell-based; conditions: Staphylococcus aureus; Table 1; read-out: MIC MRSA BAA-44
VRE 700221 [2] = assay: MIC broth microdilution assay; format: cell-based, Enterococcus faecium; conditions: Enterococcus, VRE
MRSA-1 = assay: MIC broth microdilution assay; format: cell-based, Staphylococcus aureus; conditions: Staphylococcus aureus, MRSA; Table 1; read-out: MIC MRSA-1
MRSA BAA-1707 [3] = assay: MIC broth microdilution assay; format: cell-based, Staphylococcus aureus; conditions: Staphylococcus aureus
[4] = Hemolysis assay with red blood cells; conditions: human, pH 7.2
[5] = LDH release assay for HeLa cytotoxicity; format: cell-based; conditions: human, HeLa cells; LDH release, 24 hours; tested at 25, 50 and 100 µM; read-out: HeLa Cytotox. IC50
MtB H37Ra = assay: MIC assay for Mycobacterium tuberculosis; format: cell-based
four MRSA isolates = assay: MIC assays, panel of four MRSA isolates; format: cell-based; conditions: Staphylococcus aureus, range over isolates, read-out: MIC against a panel of four MRSA isolates
MRSA BAA-1707 [6] = assay: Calgary Biofilm Device (CBD) MBC/MBEC assay; format: cell-based, Staphylococcus aureus; conditions: for MRSA BAA-1707 MBEC: biofilm eradication
VRE 700221 [7] = assay: Calgary Biofilm Device (CBD) MBC/MBEC assay; format: cell-based, Enterococcus faecium; conditions: Enterococcus, VRE; CBD, planktonic killing; read-out: VRE 700221 MBC
MRSE 35984 [8] = assay: Calgary Biofilm Device (CBD) MBC/MBEC assay; format: cell-based, Staphylococcus epidermidis; conditions: Staphylococcus epidermidis, MRSE; CBD, planktonic killing; read-out: MRSE 35984 MBC
[9] = Staphylococcus epidermidis, 12228, Table 1, read-out: MIC S. epi 12228
[10] = Table 1, read-out: MIC MRSE 35984
[11] = Table 1, read-out: MIC VRE 700221
[12] = Table 1, three independent experiments, read-out: MIC MRSA BAA-1707
[13] = single plate shown as picture, read-out: MIC (µM), MIC Assay against MRSA BAA-1707
[14] = Staphylococcus epidermidis, 12228, single plate shown as picture, read-out: MIC (µM), MIC Assay Against S. epidermidis 12228
[15] = Table 3, read-out: MRSA BAA-1707 MIC
[16] = Table 3, read-out: MRSE 35984 MIC
[17] = Table 3, read-out: VRE 700221 MIC

Cc1cc(Br)c(O)c2nc3cccc(Cl)c3nc12 [HP 11]
MIC (MRSA-2): 3.13 µM (≈ 1.01 µg/mL)
MIC (S. epi 12228; [9]): 1.56 µM (≈ 0.505 µg/mL)
MIC (MRSE 35984 [1]; [10]): 1.56 µM (≈ 0.505 µg/mL)
MIC (MRSA BAA-44): 3.13 µM (≈ 1.01 µg/mL)
MIC (VRE 700221 [2]; [11]): 3.13 µM (≈ 1.01 µg/mL)

Cc1cc(Br)c(O)c2nc3cc(Cl)ccc3nc12 [HP 12]
MIC (VRE 700221 [2]; [11]): 12.5 µM (≈ 4.04 µg/mL)
MIC (MRSA-1): 75 µM (≈ 24.3 µg/mL)

Cc1cc(Br)c(O)c2nc3cccc(Br)c3nc12 [HP 13]
MIC (MRSA-2): 2.35 µM (≈ 0.865 µg/mL)
MIC (MRSA BAA-1707 [3]; [12]): 1.17 µM (≈ 0.431 µg/mL)
MIC (MRSA BAA-1707 [3]; [13]): 0.78 µM (≈ 0.287 µg/mL)

Cc1cc(Br)c(O)c2nc3cc(Br)ccc3nc12 [HP 14]
MIC (MRSA BAA-1707 [3]; [12]): 9.38 µM (≈ 3.45 µg/mL)
MIC (MRSE 35984 [1]; [10]): 75 µM (≈ 27.6 µg/mL)
MIC (MRSA-1): 75 µM (≈ 27.6 µg/mL)

Oc1c(Br)cc(Br)c2nc3ccc(Oc4ccccc4)cc3nc12 [HP 16]
MIC (MRSA-1): 25 µM (≈ 11.2 µg/mL)

Cc1ccc2nc3c(O)c(Br)cc(Br)c3nc2c1C [HP 19]
hemolysis at 1 h, 200 µM [4]: 5.3%
MIC (S. epi 12228; [9]): 6.25 µM (≈ 2.39 µg/mL)
MIC (S. epi 12228; [14]): 6.25 µM (≈ 2.39 µg/mL)
MIC (MRSA BAA-1707 [3]; [12]): 0.15 µM (≈ 0.0573 µg/mL)
MIC (MRSA BAA-1707 [3]; [15]): 0.15 µM (≈ 0.0573 µg/mL)
MIC (MRSA BAA-1707 [3]; [13]): 0.1 µM (≈ 0.0382 µg/mL)
MIC (MRSE 35984 [1]; [16]): 0.3 µM (≈ 0.115 µg/mL)
MIC (MRSE 35984 [1]; single plate shown as picture, read-out: MIC (µM), MIC Assay Against MRSE 35984): 0.2 µM (≈ 0.0764 µg/mL)
IC50 at 24 h [5]: > 100 µM
MIC (VRE 700221 [2]; [11]): 0.15 to 1.56 µM (≈ 0.0573 to 0.596 µg/mL)
MIC (VRE 700221 [2]; [17]): 0.15 µM (≈ 0.0573 µg/mL)
MIC (VRE 700221 [2]; single plate shown as picture, read-out: MIC (µM), MIC Assay Against VRE 700221): 0.2 µM (≈ 0.0764 µg/mL)

Cc1ccc2nc3c(Br)cc(Br)c(O)c3nc2c1 [HP 20]
MIC (MRSE 35984 [1]; [10]): 6.25 µM (≈ 2.3 µg/mL)

Oc1c(Br)cc(Br)c2nc3ccc(Cl)cc3nc12 [HP 22]
hemolysis at 1 h, 200 µM [4]: ≤ 1%
MIC (S. epi 12228; [9]): 12.5 µM (≈ 4.86 µg/mL)
MIC (S. epi 12228; [14]): 12.5 µM (≈ 4.86 µg/mL)
MIC (MRSA BAA-1707 [3]; [12]): 0.15 µM (≈ 0.0583 µg/mL)
MIC (MRSA BAA-1707 [3]; [15]): 0.15 µM (≈ 0.0583 µg/mL)
MIC (MRSA BAA-1707 [3]; [13]): 0.1 µM (≈ 0.0388 µg/mL)
IC50 at 24 h [5]: > 100 µM
MIC (MtB H37Ra): 2.4 µg/mL
MIC (MtB H37Ra; 168 h, seven days): 6.25 µM
MIC (four MRSA isolates): 0.05 to 0.59 µM (≈ 0.0194 to 0.229 µg/mL)
MIC (MRSA-1): 0.15 µM (≈ 0.0583 µg/mL)

CCCCCCCCCC(=O)N[C@@H](Cc1c[nH]c2ccccc12)C(=O)N[C@H](CC(N)=O)C(=O)N[C@@H](CC(=O)O)C(=O)N[C@@H]1C(=O)NCC(=O)N[C@@H](CCCN)C(=O)N[C@@H](CC(=O)O)C(=O)N[C@H](C)C(=O)N[C@@H](CC(=O)O)C(=O)NCC(=O)N[C@H](CO)C(=O)N[C@@H]([C@H](C)CC(=O)O)C(=O)N[C@@H](CC(=O)c2ccccc2N)C(=O)O[C@@H]1C [daptomycin, reference compound]
MIC (S. epi 12228; [9]): 6.25 µM (≈ 10.1 µg/mL)
MIC (MRSA BAA-1707 [3]; [12]): 3.13 µM (≈ 5.07 µg/mL)
MIC (MRSA BAA-1707 [3]; [15]): 3.13 µM (≈ 5.07 µg/mL)
MIC (MRSE 35984 [1]; [10]): 12.5 µM (≈ 20.3 µg/mL)
MIC (MRSE 35984 [1]; [16]): 12.5 µM (≈ 20.3 µg/mL)
MIC (MRSA BAA-44): 18.8 µM (≈ 30.5 µg/mL)
MIC (VRE 700221 [2]; [11]): 125 µM (≈ 203 µg/mL)
MIC (VRE 700221 [2]; [17]): 125 µM (≈ 203 µg/mL)
MRSA BAA-1707 MBEC (MRSA BAA-1707 [6]; CBD, 24 hours treatment): > 2000 µM
MBC (MRSA BAA-1707 [6]; Staphylococcus aureus, 24 h, CBD, planktonic killing, 24 hours treatment, read-out: MRSA BAA-1707 MBC): 125 µM (≈ 203 µg/mL)
MBC (VRE 700221 [7]): 375 µM (≈ 608 µg/mL)

CC(=O)NC[C@H]1CN(c2ccc(N3CCOCC3)c(F)c2)C(=O)O1 [linezolid, reference compound]
MIC (MRSA-2): 3.13 µM (≈ 1.06 µg/mL)
MIC (MRSA BAA-1707 [3]; [12]): 12.5 µM (≈ 4.22 µg/mL)
MIC (MRSA BAA-1707 [3]; [15]): 12.5 µM (≈ 4.22 µg/mL)
MIC (MRSE 35984 [1]; [10]): 3.13 µM (≈ 1.06 µg/mL)
MIC (MRSE 35984 [1]; [16]): 3.13 µM (≈ 1.06 µg/mL)
MIC (VRE 700221 [2]; [11]): 3.13 µM (≈ 1.06 µg/mL)
MIC (VRE 700221 [2]; [17]): 3.13 µM (≈ 1.06 µg/mL)
MRSA BAA-1707 MBEC (MRSA BAA-1707 [6]; CBD, 24 hours treatment): > 2000 µM
MBC (MRSA BAA-1707 [6]; Staphylococcus aureus, 24 h, read-out: MRSA BAA-1707 MBC): 31.3 µM (≈ 10.6 µg/mL)
minimal effective concentration (MRSA BAA-1707 [6]; Staphylococcus aureus, 24 h, read-out: MRSA BAA-1707 MBEC): > 2000 µM

[H]/N=C(/N)N[C@H]1[C@H](O)[C@@H](O)[C@H](O[C@@H]2O[C@@H](C)[C@](O)(C=O)[C@H]2O[C@@H]2O[C@@H](CO)[C@H](O)[C@@H](O)[C@@H]2NC)[C@@H](N/C(N)=N\[H])[C@@H]1O [streptomycin, reference compound]
MIC (MtB H37Ra; 168 h, seven days): 1.32 µM

CN[C@H](CC(C)C)C(=O)N[C@H]1C(=O)N[C@@H](CC(N)=O)C(=O)N[C@H]2C(=O)N[C@H]3C(=O)N[C@H](C(=O)N[C@H](C(=O)O)c4cc(O)cc(O)c4-c4cc3ccc4O)[C@H](O)c3ccc(c(Cl)c3)Oc3cc2cc(c3O[C@@H]2O[C@H](CO)[C@@H](O)[C@H](O)[C@H]2O[C@H]2C[C@](C)(N)[C@H](O)[C@H](C)O2)Oc2ccc(cc2Cl)[C@H]1O [vancomycin, reference compound]
MIC (S. epi 12228; Staphylococcus epidermidis, 12228, read-out: MIC S. epi 12228): 1.17 µM (≈ 1.7 µg/mL)
MBC (MRSE 35984 [8]): 3 µM (≈ 4.35 µg/mL)
MIC (VRE 700221 [2]; read-out: MIC VRE 700221): > 100 µM
MIC (VRE 700221 [2]; read-out: VRE 700221 MIC): > 100 µM
MRSA-1707 Biofilm Eradication MBEC (MRSA BAA-1707 [6]; Figure 7A, single CBD plate): > 2000 µM
MBC (MRSA BAA-1707 [6]; Staphylococcus aureus, Figure 7A, single CBD plate, read-out: MRSA-1707 Planktonic Eradication MBC): 3.9 µM (≈ 5.65 µg/mL)
MBC (MRSA BAA-1707 [6]; Staphylococcus aureus, CBD, planktonic killing, 24 hours treatment, read-out: MRSA BAA-1707 MBC): 3.9 µM (≈ 5.65 µg/mL)
MBC (VRE 700221 [7]): > 200 µM
